Test results taken from ChEMBL document CHEMBL1131846, “Selective A1-adenosine receptor antagonists identified using yeast Saccharomyces cerevisiae functional assays” (Bioorg Med Chem Lett, 1999).

Experiments:
Adenosine receptor A1 [1] = molecular target: T1, Adenosine receptor A1 (Homo sapiens, UniProt P30542); test: Inhibitory activity against membranes from yeast cells transformed with human A1 receptor (hA1); type: cell-based
T1 sequence (P30542 whole entry): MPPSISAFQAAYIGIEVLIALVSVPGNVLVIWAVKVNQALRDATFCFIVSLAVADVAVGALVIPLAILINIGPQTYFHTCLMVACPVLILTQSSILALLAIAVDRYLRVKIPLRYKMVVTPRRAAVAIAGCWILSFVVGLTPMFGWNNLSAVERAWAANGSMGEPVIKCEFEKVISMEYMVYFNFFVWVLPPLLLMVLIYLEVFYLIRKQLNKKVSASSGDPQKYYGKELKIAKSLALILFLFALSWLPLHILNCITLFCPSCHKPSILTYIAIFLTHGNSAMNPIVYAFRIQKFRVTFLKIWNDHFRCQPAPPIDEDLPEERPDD

Adenosine receptor A2a [2] = molecular target: T2, Adenosine receptor A2a (Homo sapiens, UniProt P29274); test: Inhibitory activity against binding of [3H]CGS-21680 to human A2a receptor (hA2a) using competition binding assay at a concentration of 10 uM
Adenosine receptor A1 [3] = molecular target: T1, Adenosine receptor A1; test: Inhibitory activity against binding of the [3H]DPCPX to human A1 receptor (hA1) radioligands using competition binding assay
Adenosine receptor A2a [4] = molecular target: T2, Adenosine receptor A2a; test: Inhibitory activity against membranes from HEK293 cells stably expressing the human A2a receptor (hA2a); type: cell-based
Adenosine receptor A1 [5] = molecular target: T1, Adenosine receptor A1; test: Inhibitory activity against binding of [3H]DPCPX to human A1 receptor (hA1) using competition binding assay
Adenosine receptor A2a [6] = molecular target: T2, Adenosine receptor A2a; test: Inhibitory activity against binding of the [3H]CGS-21680 to human A2a receptor (hA2a) radioligands using competition binding assay at a concentration of 10 uM
Adenosine receptor A2a [7] = molecular target: T2, Adenosine receptor A2a; test: Inhibitory activity against binding of the [3H]CGS-21680 to human A2a receptor (hA2a) radioligands using competition binding assay
Adenosine receptor A2a [8] = molecular target: T2, Adenosine receptor A2a; test: Inhibitory activity against binding of [3H]CGS-21680 to human A2a receptor (hA2a) using competition binding assay
Adenosine receptor A2a [9] = molecular target: T2, Adenosine receptor A2a; test: Inhibitory activity against membranes from HEK293 cells stably expressing the human A2a receptor (hA2a) at a concentration of 10 uM; type: cell-based
[10] = molecular target: T3, Adenosine receptor A1 (Homo sapiens) (UniProt P30542); test: Inhibitory activity against binding of the [3H]DPCPX to human A1 receptor (hA1) radioligands using competition binding assay at a concentration of 10 uM
T3 sequence (whole entry): T1 sequence (P30542 whole entry)

[11] = molecular target: T3, Adenosine receptor A1 (Homo sapiens); test: Inhibitory activity against binding of [3H]DPCPX to human A1 receptor (hA1) using competition binding assay at a concentration of 10 uM

T2 sequence (P29274 whole entry): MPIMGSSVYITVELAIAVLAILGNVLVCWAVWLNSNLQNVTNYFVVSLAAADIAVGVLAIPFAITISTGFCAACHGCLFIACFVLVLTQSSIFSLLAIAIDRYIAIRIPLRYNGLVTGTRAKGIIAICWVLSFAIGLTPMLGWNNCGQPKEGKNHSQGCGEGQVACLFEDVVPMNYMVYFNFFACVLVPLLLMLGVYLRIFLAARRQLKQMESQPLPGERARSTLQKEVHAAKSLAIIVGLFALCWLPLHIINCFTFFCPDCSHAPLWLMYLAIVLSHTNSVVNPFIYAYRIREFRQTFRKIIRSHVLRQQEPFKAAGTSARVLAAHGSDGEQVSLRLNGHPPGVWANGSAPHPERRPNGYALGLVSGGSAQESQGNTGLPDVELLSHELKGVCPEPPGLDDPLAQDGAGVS

Structure (SMILES) | IC50 (Adenosine receptor A1 [1]) [µM] | inhibition (Adenosine receptor A2a [2]) [%] | Ki (Adenosine receptor A1 [3]) [µM] | IC50 (Adenosine receptor A2a [4]) [µM] | IC50 (Adenosine receptor A1 [5]) [µM] | inhibition (Adenosine receptor A2a [6]) [%] | Ki (Adenosine receptor A2a [7]) [µM] | IC50 (Adenosine receptor A2a [8]) [µM] | inhibition (Adenosine receptor A2a [9]) [%] | inhibition [10] [%] | inhibition [11] [%]
Cc1nc2nc(-c3ccccc3)[nH]c(N[C@H](C)c3ccccc3)c-2c1C | 1.61 | 61 | 0.981 | 3.88 | 1.98 | 61 |  |  |  |  | 
Cc1[nH]c2nc(-c3ccccc3)nc(N[C@H](CO)CC(C)C)c2c1C | 1.75 |  | 0.951 | 2.68 | 1.91 |  | 1.14 | 3.4 |  |  | 
Cc1[nH]c2nc(-c3ccccc3)nc(NCc3ccncc3)c2c1C | 0.222 |  | 0.132 | 2.01 | 0.262 |  | 0.811 | 1.71 |  |  | 
CC(=O)NCCNc1nc(-c2ccccc2)nc2[nH]c(C)c(C)c12 |  |  |  | 0.048 |  |  | 0.023 | 0.048 |  |  | 
Cc1[nH]c2nc(-c3ccccc3)nc(N[C@@H]3Cc4ccccc4[C@H]3O)c2c1C | 1.7 | 59 | 0.896 | 3.22 | 1.81 | 59 |  |  |  |  | 
Cc1[nH]c2nc(-c3ccccc3)nc(NCCN3CCNC3=O)c2c1C | 0.422 |  | 0.144 | 0.725 | 0.364 |  | 0.215 | 0.604 |  |  | 
Cc1[nH]c2nc(-c3ccccc3)nc(NCCCN3CCCC3=O)c2c1C | 5.65 | 54 |  |  |  | 54 |  |  | 58 | 75 | 75
Cc1[nH]c2nc(-c3ccccc3)nc(N[C@@H]3CCCCNC3=O)c2c1C | 1.26 |  | 0.771 | 2.11 | 1.54 |  | 0.962 | 2.06 |  |  | 
